“Also recorded” adds a separate entry of the source.
How the values were obtained:
[1] = system: xenopus stromelysin 3 promoter (several TREs) coupled to luciferase in XTC cells; assay: XTC cell transfection with the stromelysin 3/luciferase construct; assay type: cell-based; conditions: T3 10^-8 M in culture medium vs absence of T3 (basal level), FIG. 4
Method: The construct is transferred into XTC cells by complexing the DNA with PEI (22 kDA, at 6 equivalents), the transfected cells are cultured in the presence (10^−8 M) or in the absence (−T3) of T3 thyroid hormone.
The transgenic constructs are tested in XTC xenopus cells in culture.
The XTC cells are obtained from carcasses of xenopus tadpoles just before metamorphosis (Pudney et al., 1973). The cells are cultured at ambient temperature, for up to 20 passages.
The cells are transfected by complexing the DNA with 22 kDa polyethyleneimine (PEI) at 6 equivalents (Ouatas et al., 1998).
The protocol makes it possible to rapidly verify the constructs and thus to verify that said constructs respond correctly to the substances, such as the T3 thyroid hormone when it is injected into the cell culture medium.

[2] = system: TRE-tk-luciferase construct (rat malic enzyme TRE); assay: Somatic transgenesis in xenopus dorsal muscle with TRE-tk-luciferase; assay type: in vivo; conditions: T3 10^-8 M vs -T3; measured four days after treatment; FIG. 5
Method: The somatic transgenesis is carried out either: • by injection of 1 μl of naked DNA into the dorsal muscle of the embryo. The DNA concentration is 100 ng/μl to 5 μg/μl in 0.07 M NaCL; • by microinjection of 1 μl of DNA/PEI (polyethyleneimine) into the brain of the embryo. The DNA concentration is between 50 and 500 ng/μl in 5% glucose. 3.1. […] 3.2.

[3] = system: TRE-tk-luciferase construct (rat malic enzyme TRE); assay: Somatic transgenesis with TRE-tk-luciferase in dorsal muscle of pretreated xenopus tadpoles; assay type: in vivo; conditions: tadpoles pretreated with perchlorate and T3 10^-11 M; then T3 10^-8 M for 48 hours vs control; FIG. 6
Method: FIG. 6: Somatic transgenesis by injection, into the dorsal muscle of pretreated xenopus animals, of the construct TRE-tk-luciferase. The animals are pretreated for 48 hours with 10^−11 M of T3 thyroid hormone, and then rinsed for 24 hours. The animals are then transfected by injection into the dorsal muscle of 1 mg/animal of the construct TRE-tk-luciferase. The animals are then treated for 48 hours (10^−8 M) or in the absence (−T3) of thyroid hormone. Two days after treatment, the luciferase expression is measured. […] According to an alternative method, the transgenic animals according to the invention are pretreated with perchlorate for one month at 1 g/l, and are then sensitized with the test compound, such as the T3 hormone (10^−11 M), for 18 to 48 hours without food. The animals are then washed in a medium containing no T3 and are fed for 36 hours. The construct (for example TRE-tk-luciferase) is injected into the dorsal muscle of the xenopus embryo (1 mg/animal). Out of the 24 tadpoles that were pretreated and then subjected to somatic transgenesis, twelve tadpoles are treated for 48 hours with T3 thyroid hormone at 10^−8 M; the other twelve tadpoles that remain serve as a control.

[4] = system: TRE-tk-EGFP construct (rat malic enzyme TRE); assay: Somatic transgenesis in xenopus dorsal muscle with TRE-tk-EGFP; assay type: in vivo; conditions: T3 10 nM vs -T3; detected four days later; FIG. 7
Method: FIG. 7: Somatic transgenesis by injection, into the dorsal muscle of xenopus, of the construct TRE-tk-EGFP. The animals are transfected by injection into the dorsal muscle of […] of the construct TRE-tk-EGFP. The animals are then treated for 48 hours in the presence (+T3 10 nM) or in the absence (−T3) of T3 thyroid hormone. […] The somatic transgenesis is carried out either: • by injection of 1 μl of naked DNA into the dorsal muscle of the embryo. The DNA concentration is 100 ng/μl to 5 μg/μl in 0.07 M NaCL; • by microinjection of 1 μl of DNA/PEI (polyethyleneimine) into the brain of the embryo. The DNA concentration is between 50 and 500 ng/μl in 5% glucose. 3.3. The TRE-tk-EGFP construct was injected into the dorsal muscle of a xenopus embryo ([…]). Half the animals are treated with T3 thyroid hormone at 10 nM.

[5] = system: DR4(X3)-GFP construct (consensus TRE); conditions: thyroid hormone 10^-8 M in the water of the aquarium; FIG. 8
Method: The germinal transgenesis is carried out according to the protocol described by Kroll and Amaya (1996).

N[C@@H](Cc1cc(I)c(Oc2ccc(O)c(I)c2)c(I)c1)C(=O)O [T3 thyroid hormone, Tri-iodothyronine]
expression of the luciferase reporter protein [1]: greater expression | expression of the reporter protein (luciferase) [2]: much greater expression | expression of the reporter protein (luciferase) [3]: much greater expression | expression of the reporter protein (EGFP) [4]: much greater expression; also recorded: bioluminescence is visible in the cells of the treated animal | emission of fluorescence (GFP) [5]: emission of fluorescence throughout the nervous system and in the limb buds

Source: patent US8476484B2, “Transgenic clawed frog embryos and use thereof as detectors of endocrine disrupters in the environment” (Centre National de la Recherche Scientifique (CNRS), priority 2002, dated 2013)
